Data published in PMC6133161, “Thiazoles with cyclopropyl fragment as antifungal, anticonvulsant, and anti-Toxoplasma gondii agents: synthesis, toxicity evaluation, and molecular docking study” (Medicinal Chemistry Research, 2018).

How the values were obtained:
[1] = system: motor coordination; assay: Rotarod test; format: in vivo, mouse; conditions: mice, 100 mg/kg, 60 min pretreatment; 6, 18 and 24 rpm
Protocol: For in vivo tests that assessed anticonvulsant properties of the test compounds 3a–3j adult male Albino Swiss (CD-1) mice weighing between 18 and 22 g were used. The animals were housed in groups of ten mice per cage at room temperature of 22 ± 2 °C, under light/dark (12:12) cycle. The animals had free access to food and tap water before the experiments. The ambient temperature of the experimental room and humidity (50 ± 10%) were kept consistent throughout all the tests. For behavioral experiments the animals were selected randomly. Each experimental group consisted of 4–8 animals/dose. The experiments were performed between 9 AM and 2 PM. Immediately after the in vivo assay the animals were euthanized by cervical dislocation. All procedures were approved by the Local Ethics Committee of the Jagiellonian University in Krakow (34/2018, 1.02.2018)) and the treatment of animals was in full accordance with ethical standards laid down in respective Polish and EU regulations (Directive No. 86/609/EEC). For in vivo tests the compounds 3a–3j were prepared in 1% Tween 80 solution (POCH, Poland) and they were administered by the intraperitoneal route. Control mice received 1% Tween 80. Pentylenetetrazole (PTZ), pilocarpine hydrochloride and scopolamine butylbromide were provided by Sigma Aldrich (Poland). For the tests they were prepared in 0.9% saline (Polfa Kutno, Poland). PTZ and pilocarpine were administered 60 min after the test compound or vehicle. To assess anticonvulsant properties of the test compounds anticonvulsant screening was conducted. Four assays were used: PTZ, maximal electroshock seizure (MES), 6-Hz and pilocarpine tests. In these assays the dose of 100 mg/kg was chosen as a starting dose. If it turned out to be effective, a lower dose (30 mg/kg) was also tested. The test was performed according to the method recently described (Sałat et al. [2005]). The mice were trained daily for 3 consecutive days on the rotarod apparatus (Rotarod apparatus, May Commat RR0711, Turkey; rod diameter: 2 cm) rotating at a constant speed of 18 rotations per minute (rpm). During each training session, the animals were placed on a rotating rod for 3 min with an unlimited number of trials. The proper experimentation was conducted 24 h after the final training trial. […] Motor impairments, defined as the inability to remain on the rotating rod for 1 min were measured and mean time spent on the rod was counted in each experimental group.

[2] = system: pilocarpine-induced status epilepticus; assay: Pilocarpine-induced seizures; format: in vivo, mouse; conditions: mice, 100 mg/kg ip, pilocarpine 400 mg/kg ip; post-hoc vs vehicle
Protocol: For in vivo tests that assessed anticonvulsant properties of the test compounds 3a–3j adult male Albino Swiss (CD-1) mice weighing between 18 and 22 g were used. The animals were housed in groups of ten mice per cage at room temperature of 22 ± 2 °C, under light/dark (12:12) cycle. The animals had free access to food and tap water before the experiments. The ambient temperature of the experimental room and humidity (50 ± 10%) were kept consistent throughout all the tests. For behavioral experiments the animals were selected randomly. Each experimental group consisted of 4–8 animals/dose. The experiments were performed between 9 AM and 2 PM. Immediately after the in vivo assay the animals were euthanized by cervical dislocation. All procedures were approved by the Local Ethics Committee of the Jagiellonian University in Krakow (34/2018, 1.02.2018)) and the treatment of animals was in full accordance with ethical standards laid down in respective Polish and EU regulations (Directive No. 86/609/EEC). For in vivo tests the compounds 3a–3j were prepared in 1% Tween 80 solution (POCH, Poland) and they were administered by the intraperitoneal route. Control mice received 1% Tween 80. Pentylenetetrazole (PTZ), pilocarpine hydrochloride and scopolamine butylbromide were provided by Sigma Aldrich (Poland). For the tests they were prepared in 0.9% saline (Polfa Kutno, Poland). PTZ and pilocarpine were administered 60 min after the test compound or vehicle. To assess anticonvulsant properties of the test compounds anticonvulsant screening was conducted. Four assays were used: PTZ, maximal electroshock seizure (MES), 6-Hz and pilocarpine tests. In these assays the dose of 100 mg/kg was chosen as a starting dose. If it turned out to be effective, a lower dose (30 mg/kg) was also tested. In this test the mice were pretreated with the investigated compound or vehicle and 60 min later they received pilocarpine (400 mg/kg, ip). To avoid cholinergic side-effects: peripheral toxicity and diarrhea, masticatory and stereotyped movements, animals treated with pilocarpine also received scopolamine butylbromide (1 mg/kg, ip) which was injected 45 min before pilocarpine. After the administration of the convulsant, the mice were observed during the next 60 min for behavioral changes. Latency time to the onset of status epilepticus was considered as the endpoint in this test (Wilhelm et al. [2010]).

SMILES	motor coordination (time spent on rotarod) [1]	latency time to pilocarpine-induced status epilepticus [2]
FC(F)(F)c1ccc(-c2csc(N/N=C/C3CC3)n2)cc1 [Compound 3e, (E)-2-(2-(Cyclopropylmethylene)hydrazinyl)-4-(4-(trifluoromethyl)phenyl)thiazole]	None of these compounds impaired motor skills	did not show statistically significant anticonvulsant effects
Clc1ccc(-c2csc(N/N=C/C3CC3)n2)cc1 [Compound 3c, (E)-4-(4-Chlorophenyl)-2-(2-(cyclopropylmethylene)hydrazinyl)thiazole]	None of these compounds impaired motor skills	did not show statistically significant anticonvulsant effects
COc1ccc(-c2csc(N/N=C/C3CC3)n2)cc1 [Compound 3f, (E)-2-(2-(Cyclopropylmethylene)hydrazinyl)-4-(4-methoxyphenyl)thiazole]	None of these compounds impaired motor skills	did not show statistically significant anticonvulsant effects
[N-]=[N+]=Nc1ccc(-c2csc(N/N=C/C3CC3)n2)cc1 [Compound 3i, (E)-4-(4-Azidophenyl)-2-(2-(cyclopropylmethylene)hydrazinyl)thiazole]	None of these compounds impaired motor skills	did not show statistically significant anticonvulsant effects
